The supplement of paper PMC10307832

Assays:
Assay in all cases: relative viability (nuclei count vs DMSO), 5 days (fraction); higher = more cells survive
[1] = compound: O=C(CCCCCCNC(=O)c1cnc(N(c2ccccc2)c2ccccc2)nc1)NO [Ricolinostat] + O=C(CCCCCCC(=O)Nc1ccccc1)NO [Vorinostat] (partner 1 µM)
Procedure, shortened: (§1)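 Lung cancer cell lines in 1536-well plates got either a single drug or a fixed anchor-drug dose together with five library-drug doses (not always all listed) in √10 steps, by pin tool, on the day after seeding. Nuclei were counted after 5 days, and relative viability is the treated-to-vehicle ratio of nuclei counts. Values are medians of duplicate plates.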

TGX 221 + Vorinostat = compound: CC1=CN2C(=O)C=C(N=C2C(=C1)C(C)NC3=CC=CC=C3)N4CCOCC4 [TGX 221] + O=C(CCCCCCC(=O)Nc1ccccc1)NO [Vorinostat] (partner 1 µM)
Procedure, shortened: as §1

[2] = compound: C1=CC=C(C(=C1)C2=CC=C(C=C2)C3=CSC4=C3C(=C(C(=O)N4)C#N)O)O + CCNC(=O)c1noc(-c2cc(C(C)C)c(O)cc2O)c1-c1ccc(CN2CCOCC2)cc1 [Luminespib] (partner 0.01 µM)
Procedure, shortened: as §1

[3] = compound: O=C(CCCCCCNC(=O)c1cnc(N(c2ccccc2)c2ccccc2)nc1)NO [Ricolinostat] + CS(=O)(=O)N1CCN(Cc2cc3nc(-c4cccc5[nH]ncc45)nc(N4CCOCC4)c3s2)CC1 [Pictilisib] (partner 1 µM)
Procedure, shortened: as §1

Cell Line | relative viability ([1]; first compound 0.08 µM) | relative viability ([1]; first compound 0.253 µM) | relative viability ([1]; first compound 0.8 µM) | relative viability ([1]; first compound 2.53 µM) | relative viability (TGX 221 + Vorinostat; first compound 0.08 µM) | relative viability (TGX 221 + Vorinostat; first compound 0.253 µM) | relative viability (TGX 221 + Vorinostat; first compound 0.8 µM) | relative viability (TGX 221 + Vorinostat; first compound 2.53 µM) | relative viability (TGX 221 + Vorinostat; first compound 8 µM) | relative viability ([2]; first compound 0.08 µM) | relative viability ([2]; first compound 0.253 µM) | relative viability ([2]; first compound 0.8 µM) | relative viability ([2]; first compound 2.53 µM) | relative viability ([2]; first compound 8 µM) | relative viability ([3]; first compound 0.08 µM) | relative viability ([3]; first compound 0.253 µM) | relative viability ([3]; first compound 0.8 µM) | relative viability ([3]; first compound 2.53 µM)
NCI-H2087 | 0.398 | 0.42 | 0.728 | 0.193 | 0.814 | 0.855 | 0.483 | 0.664 | 0.932 | 0.165 | 0.162 | 0.222 | 0.172 | 0.204 | 0.806 | 0.828 | 0.867 | 0.87
A-427 | 0.789 | 0.789 | 0.624 | 0.752 | 0.872 | 0.876 | 0.817 | 0.847 | 0.856 | 0.735 | 1.37 | 0.916 | 1.06 | 0.927 | 0.626 | 0.722 | 0.781 | 0.757
NCI-H460 | 0.594 | 0.677 | 0.573 | 0.194 | 0.654 | 0.632 | 0.655 | 0.691 | 0.595 | 0.0357 | 0.0366 | 0.0362 | 0.0279 | 0.036 | 0.332 | 0.393 | 0.308 | 0.269
EBC-1 | – | – | – | – | – | – | – | – | – | – | – | – | – | – | 0.372 | 0.403 | 0.26 | 0.165
NCI-H23 | 0.426 | 0.586 | 0.407 | 0.342 | 0.638 | 0.625 | 0.579 | 0.498 | 0.659 | – | 0.19 | 0.212 | 0.197 | 0.211 | 0.381 | 0.572 | 0.475 | 0.309
NCI-H1437 | 0.853 | 0.712 | 0.611 | 0.426 | 0.888 | 0.922 | 0.858 | 0.852 | 0.779 | 1.01 | 1.34 | 1.17 | 1.17 | 0.902 | 0.38 | 0.414 | 0.36 | 0.223
EKVX | 0.617 | 0.724 | 0.62 | 0.74 | 0.767 | 0.758 | 0.841 | 0.608 | 0.539 | 1.14 | 0.977 | 0.863 | 0.912 | 0.726 | – | 0.444 | 0.456 | 0.378
NCI-H1299 | – | – | – | – | – | – | – | – | – | – | – | – | – | – | 0.77 | 0.796 | 0.784 | 0.603
NCI-H1650 | 0.544 | 0.535 | 0.485 | 0.372 | 0.482 | 0.478 | 0.521 | 0.676 | 0.48 | 0.195 | 0.197 | 0.175 | 0.208 | 0.2 | 0.423 | 0.523 | 0.395 | 0.347
HARA | 0.496 | 0.446 | 0.377 | 0.373 | 0.508 | 0.475 | 0.575 | 0.517 | 0.471 | 0.375 | 0.707 | 0.553 | 0.592 | 0.682 | 0.208 | 0.481 | 0.503 | 0.203
ChaGo-K-1 | 0.717 | 0.762 | 0.73 | 0.523 | 0.742 | 0.758 | 0.749 | 0.727 | 0.707 | 0.706 | 0.628 | 0.684 | 0.597 | 0.604 | 0.916 | 0.676 | 0.616 | 0.625
HCC-366 | 0.296 | 0.327 | 0.313 | 0.165 | 0.357 | 0.327 | 0.365 | 0.292 | 0.351 | – | – | – | – | – | 0.133 | 0.17 | 0.151 | 0.198
SW 900 | 0.446 | 0.61 | 0.483 | 0.327 | – | 0.473 | 0.403 | 0.37 | 0.505 | 0.161 | 0.174 | 0.186 | 0.135 | 0.192 | – | – | – | –
SW 1573 | 0.554 | 0.667 | 0.751 | 0.49 | 0.648 | 0.655 | 0.739 | 0.888 | 0.778 | 0.192 | 0.105 | 0.147 | 0.219 | 0.275 | 0.454 | 0.504 | 0.542 | 0.475
NCI-H1703 | – | – | – | – | – | – | – | – | – | – | – | – | – | – | – | 0.253 | 0.247 | 0.275
SK-MES-1 | 0.912 | 1.03 | 1.07 | 0.932 | 1.03 | 0.997 | 1.16 | 0.987 | 0.894 | 0.766 | 0.822 | 0.763 | 0.622 | 0.633 | 0.277 | 0.34 | 0.304 | 0.293
HCC-827 | 0.768 | 0.86 | 0.574 | 0.915 | 0.777 | 0.922 | 0.888 | 0.891 | 0.852 | 0.639 | 0.845 | 0.573 | 0.7 | 0.43 | 0.956 | 0.965 | 0.948 | 1.09
NCI-H522 | 0.836 | 0.919 | 0.855 | 0.628 | 0.976 | 0.822 | 0.883 | 0.831 | 0.826 | – | 1.28 | 1.2 | 1.27 | 0.937 | – | – | – | –
NCI-H1623 | – | – | – | – | – | – | – | – | – | 0.454 | 0.591 | 0.817 | 0.434 | 0.419 | – | – | – | –
HCC-78 | – | 0.433 | 0.395 | 0.362 | 0.518 | 0.449 | 0.428 | 0.338 | 0.362 | – | – | – | – | – | – | 0.196 | 0.163 | 0.184
NCI-H1648 | – | 0.483 | 0.458 | 0.254 | – | 0.295 | 0.651 | 0.395 | 0.421 | – | – | – | – | – | – | – | – | –
NCI-H1563 | – | – | – | – | – | – | – | – | – | 0.525 | 0.613 | 0.551 | 0.587 | 0.517 | 0.634 | 0.674 | 0.627 | 0.732
Calu-6 | – | – | – | – | – | – | – | – | – | – | – | – | – | – | 0.898 | 0.91 | 0.795 | 0.648
A549 | – | – | – | – | – | – | – | – | – | – | – | – | – | – | 0.405 | 0.517 | 0.471 | 0.312
IA-LM | – | 0.96 | 0.8 | 0.647 | – | 0.981 | 1.01 | 0.827 | 0.941 | – | – | – | – | – | 0.234 | 0.35 | 0.308 | 0.316
